From PubChem BioAssay AID179 (DTP/NCI, 2004) come the findings set out here.

pEC50, pIC50: −log10 of the molar value. The source made the active and inactive calls.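 The calls were made as follows: active = compounds giving half or more protection of infected cells from virus-caused growth loss, again on retest; inactive = the rest.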 Where a SMILES comes first, the peptide text is derived from it.

The test system of the experiment is CEM cells HIV-1 protection, formazan growth assay. As to the kind of experiment: NCI AIDS Antiviral Assay. As to conditions: for pIC50: measured here: growth of uninfected CEM cells. The method in brief:
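Protection of CEM cells against HIV-1 measured as cell growth via soluble formazan read-out, with five concentrations tested on both infected and uninfected cells; failure to protect may reflect toxicity.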

`O=C([O-])c1ccccn1.O=C([O-])c1ccccn1.[Cu+2]`: the pEC50 is under 3.70 and the pIC50 was 5.11.
Turning to `NC(=S)NNC(=S)NC(=O)c1ccco1`, the pEC50 is under 3.70 and the pIC50 is under 3.70.
Regarding `NC(=O)c1ncn2c(=O)n(CCCl)nnc12`, the pEC50 was under 2.99 and the pIC50 is 4.61.
On the same counts, the results for `CCCCNc1nc2nc[nH]c2c(=O)[nH]1` are under 3.70 and under 3.70.
On to `O=C(CSc1nnc(Cc2ccccc2)o1)Nc1ccccc1Cl`, for which the pEC50 is under 3.86 and the pIC50 was under 3.86.
For the compound `CCC(=O)c1c(NOC2OC(COC(C)=O)C(OC(C)=O)C(OC(C)=O)C2OC(C)=O)nc(OC)n(C)c1=O` (stereo not drawn), the pEC50 was under 4.33 and the pIC50 is under 4.33.
Regarding `COc1ccc(/C=N/NC(=O)c2ccc(O)c(CN(C)C)c2)cc1`, the pEC50 was under 3.70 and the pIC50 is under 3.70.
As to `O=c1n(-c2ccccc2)c(=O)n2n1C1CC3c4ccccc4C1C32` (stereo not drawn), the pEC50 was under 4.64 and the pIC50 was under 4.64.
Consider `Cc1ccc(-c2nc3ccccc3c(=O)n2NCC2(O)OCC(O)C(O)C2O)cc1` (stereo not drawn), for which the result was inactive.
The same measure, in the same setting: as for `Cc1ccc(-n2c3nc(=O)n(C)c(=O)c-3nc3ccccc32)cc1`, the entry is “inactive”.
Turning to `CC(C)(C)[Si](C)(C)OC1/C(=C/C#N)C(n2ccc(=O)[nH]c2=O)OC1CO` (stereo not drawn), the pEC50 was under 3.70 and the negative logarithm of the IC50 (pIC50) is under 3.70.
For the compound `COc1cccc2ccc3c(c12)C(O)OC31CCc2c(C)cccc21` (stereo not drawn), the pEC50 is under 4.07 and the pIC50 was 4.37.
On the same counts, the results for `Cn1c(-c2ccc(/C=N/N=C/c3ccc(-c4c[n+]5ccccc5n4C)cc3)cc2)c[n+]2ccccc12` are under 3.70 and 3.77.
The like results for `COC(=O)C1CCC(=O)N1C(c1cc(OC)c(OC)c(OC)c1)c1cccc2ccccc12` (stereo not drawn) were, in that order, under 3.70 and 4.08.
On the same counts, the results for `C=C1CN(S(=O)(=O)c2ccc(C)cc2)CCCN(C(C)C)CCCN(S(=O)(=O)c2ccc(C)cc2)C1` are under 3.70 and 5.20.
As for `Cc1ccc(S(=O)(=O)N(CCN2C(=O)c3ccccc3C2=O)c2cc3c4c(c2)Oc2cc(N(CCN5C(=O)c6ccccc6C5=O)S(=O)(=O)c5ccc(C)cc5)cc5c2C4(C)c2c(cc(N(CCN4C(=O)c6ccccc6C4=O)S(=O)(=O)c4ccc(C)cc4)cc2O5)O3)cc1`, the pEC50 was under 4.00 and the pIC50 is 4.19.
On the same counts, the results for `COc1ccc(C2CC(=O)c3c(O)cc(OC4OC(CO)C(O)C(O)C4OC4OC(C)C(O)C(O)C4O)cc3O2)cc1O` (stereo not drawn) are under 3.70 and under 3.70.
The like results for `N=C(N)c1ccc(N=NNc2ccc(C(=N)N)cc2)cc1` (tested in a mixture with another compound) were, in that order, under 3.82 and 4.40.
The like results for `CO/N=C(\C)CCC#Cc1ccccc1C(=O)OC` were, in that order, under 3.70 and under 3.70.
`COc1cccc(C(=O)N2CCc3ccccc32)c1OC`: the outcome was inactive.
Take `CO/C(N)=C(\C#N)N=Cc1cccnc1`: the pEC50 is under 3.70 and the pIC50 is under 3.70.
As for `COc1ccc(NC(=O)CC(=O)N2N=C(N(c3ccccc3)c3ccccc3)CC2c2ccccc2)cc1` (stereo not drawn), the outcome was inactive.
`N#C/C(=C/c1ccsc1)C(=O)c1ccccc1`: the pEC50 was under 3.96 and the pIC50 was under 3.96.
In the case of `COc1cc(OC)c(OC)cc1/C=C\c1nccc2ccccc12`, the pEC50 is under 4.51 and the pIC50 is 4.65.
Turning to `O1[SiH]2[SiH]3O[SiH]3[SiH]3O[SiH]3[SiH]12` (stereo not drawn), the outcome was inactive.
With `COc1cc(/C=C(\NC(=O)c2ccccc2)c2nc3[nH]c(=S)[nH]c(=O)c3[nH]2)cc(OC)c1OC`, the result was inactive.
Turning to `O=C(c1ccccc1)C1C(=O)c2ccccc2C1=O`, the pEC50 was under 3.98 and the pIC50 is under 3.98.
Turning to `COC(=O)C1(C(=O)OC)N=C(C)OC1C(C)C` (stereo not drawn), the pEC50 is under 3.70 and the pIC50 was under 3.70.
As for `CC(NC(=O)CNC(=O)C(N)CO)C(=O)NC(CCC(=O)O)C(=O)NC(CCCCN)C(=O)N1CCCC1C(=O)NC(CCC(=O)O)C(=O)NC(CCCCN)C(=O)NC(CCC(=O)O)C(=O)NC(CCCN=C(N)N)C(=O)NC(CO)C(=O)NC(Cc1ccc(O)cc1)C(=O)NC(C)C(=O)NC(Cc1cnc[nH]1)C(=O)NC(CO)C(=O)O` (stereo not drawn) (H-SGAEKPEKERSYAHS-OH; configuration not given here), the pEC50 is under 4.00 and the pIC50 was under 4.00.
`O=C1/C(=C/c2cc(O)c(O)c(O)c2)Oc2cc(O)cc(OC3OC(CO)C(O)C(O)C3O)c21` (stereo not drawn): the result was inactive.
In the case of `O=c1[nH]nnc2ccccc12`, the pEC50 is under 3.61 and the pIC50 was under 3.61.
With `CC(O)C(N=Cc1ccccc1[O-])C(=O)[O-].CC(O)C(N=Cc1ccccc1[O-])C(=O)[O-].[Co+2]` (stereo not drawn), the pEC50 is under 3.44 and the pIC50 is 4.19.
As to `Nc1ccc2cc(S(=O)(=O)O)c(N=Nc3ccc(-c4ccc(N=Nc5c(S(=O)(=O)O)cc6cc(S(=O)(=O)O)c(N=Nc7cccc([N+](=O)[O-])c7)c(N)c6c5O)cc4)cc3)c(O)c2c1`, the result was active.
For `Nc1cccc(P(N)(N)=O)c1`, the pEC50 was under 3.70 and the pIC50 was under 3.70.
In the case of `CC(C)CC1=[N+]=C(NC#N)N=C(CCC(=O)Nc2ccccc2[N+](=O)[O-])C1`, the pEC50 was under 3.17 and the pIC50 was under 3.17.
Regarding `COc1ccc(/C=C2\NC(=S)N(CN3CCOCC3)C2=O)cc1`, the pEC50 was under 3.70 and the pIC50 was 4.33.
For the compound `CCCC(=O)[O-].CCCC(=O)[O-].NCCN.NCCN.[Co+3].[O-][Cl+3]([O-])([O-])[O-]`, the outcome was inactive.
Regarding `CSCC1CC(c2ccc(Cl)cc2)=NO1` (stereo not drawn), the pEC50 is under 3.97 and the pIC50 is under 3.97.
As for `Brc1ccccc2cc(-c3ccccc3)nc1-2`, the outcome was inactive.
As to `CN1C(=O)C(O)(CC(=O)c2ccccc2)c2ccccc21` (stereo not drawn), the pEC50 was under 3.70 and the pIC50 is 4.45.
Consider `CC(C)(C)C1=NC(S)NC(CCC(=O)Nc2ccccc2[N+](=O)[O-])=C1` (stereo not drawn), for which the pEC50 is under 3.16 and the pIC50 was under 3.16.
Regarding `Cc1ccc(N(C(=[As]c2ccccc2)C(C)(C)C)[Si](C)(C)C)cc1` (stereo not drawn), the pEC50 is under 4.74 and the pIC50 is under 4.74.
As for `NCCCNCCSSCCNCCCN`, the pEC50 was under 3.70 and the pIC50 was 4.98.
On the same counts, the results for `C[C@H]1[C@@H](c2ccccc2)C12C(=O)NC(=O)NC2=O` are under 3.70 and 3.98.
Regarding `CCOc1ccccc1NC(=O)/C(=N\NC(C)(C)C)C1C(=O)Nc2ccccc2S1=O` (stereo not drawn), the pEC50 is under 3.95 and the pIC50 is 4.75.
The like results for `C/C=C/C=C/c1nc(C#N)c(N)o1` were, in that order, under 3.70 and 4.07.
On the same counts, the results for `Clc1ccc(NN(c2ccccc2)c2ccc(Cl)cc2)cc1` are under 3.70 and 3.94.
In the case of `O=C(Nc1ccccc1)Nc1ccc([N+](=O)[O-])cn1`, the pEC50 is under 3.70 and the pIC50 was under 3.70.
Regarding `O=C(/C=C/c1ccc(O)c(O)c1)NC(CO)C(=O)O` (stereo not drawn), the pEC50 is under 3.70 and the pIC50 was 4.54.
On to `NC(=O)CNC(=O)[C@@H]1C[C@@H](OCCC(=O)O)CN1C(=O)OCc1ccccc1`, for which the pEC50 was under 3.70 and the pIC50 is under 3.70.
As for `Cc1ccc(-c2nc3cc(N4CCN(C)CC4)c(F)cc3[nH]2)cc1`, the pEC50 is under 3.70 and the pIC50 was 4.58.
On the same counts, the results for `O=C1/C(=C\c2ccccn2)c2ccccc2N1Cc1ccccc1` are under 4.64 and 4.90.
On to `COc1ccc2c(c1)C(=O)C1(C2)[C@H](c2ccccc2)C2C(=O)c3cc(OC)ccc3C2[C@H]1c1ccccc1` (stereo partly drawn), for which the pEC50 is under 3.70 and the pIC50 is 3.86.
On the same counts, the results for `CN(C)CCSC(=Nc1ccccc1)N1C=COC=C1` are under 3.06 and 4.35.
Turning to `CC12C=C[C@]3(CC[C@@H]4[C@@](C)(CO)CCC[C@]4(C)C3CC1)C2` (stereo partly drawn), the result was inactive.
In the case of `CCOP(=O)(Nc1ccc(-c2ccccc2)cc1)OCC`, the pEC50 was under 3.70 and the pIC50 was 4.28.
Take `Nc1ccc(/C=C/c2ccc(NS(=O)(=O)c3ccnc4c(O)c(C(=O)O)ccc34)cc2S(=O)(=O)O)c(S(=O)(=O)O)c1`: the pEC50 is 4.16 and the pIC50 is under 4.00.
Take `Nn1c(=O)n(Cc2ccccc2)n(-c2ccccc2)c1=O`: the result was inactive.
Take `Cc1cccc(C)c1NC(=S)/N=C/C1=C(O)c2ccccc2C1=O`: the pEC50 was under 3.70 and the pIC50 is 4.80.
Regarding `c1csc(-c2cc(-c3ccsc3)c(-c3ccsc3)s2)c1`, the pEC50 is under 3.70 and the pIC50 was 3.83.
Regarding `CCc1cc2c(O)c(c1)Cc1cc(CC)cc(c1O)Cc1cc(CC)cc(c1O)Cc1cc(CC)cc(c1O)Cc1cc(CC)cc(c1O)Cc1cc(CC)cc(c1O)Cc1cc(CC)cc(c1O)C2`, the pEC50 is under 5.00 and the pIC50 is under 5.00.
For the compound `c1ccc(-c2nc(-c3ccccc3SSc3ccccc3-c3nc(-c4ccccc4)nn3-c3ccccc3)n(-c3ccccc3)n2)cc1`, the pEC50 was under 4.00 and the pIC50 was under 4.00.
Consider `CC(=O)NC1(C)CC[C@H]2CC1C(C)=NC2(C)C` (stereo partly drawn), for which the pEC50 was under 2.98 and the pIC50 is under 2.98.
As to `CC(/C(=N\Nc1ccccc1)c1ccc(O)cc1)C1C(=O)Oc2ccccc21` (stereo not drawn), the outcome was inactive.
In the case of `NC(N)=N/N=C/C(Cl)(Cl)Cl`, the pEC50 is under 3.70 and the pIC50 was under 3.70.
For `O=C(Cc1nc2ccccc2c(=O)n1-c1c(Cl)cccc1Cl)c1ccncc1`, the pEC50 was under 4.90 and the pIC50 was under 4.90.
For the compound `CCCCC(CCCCCC(CCCC)C1NC(C)Cc2cc(OC)c(OC)cc21)C1NC(C)Cc2cc(OC)c(OC)cc21` (stereo not drawn), the pEC50 was under 3.70 and the pIC50 is 6.35.
On the same counts, the results for `O=C1CCCCC/C1=C\c1cccc(F)c1` are under 3.70 and under 4.00.
